These results are taken from US20140221480A1, “METHODS OF MANAGING BRAIN INFLAMMATION” (EMORY UNIVERSITY, priority 2013, published 2014).

Entries after “also recorded” stand apart in the source; their conditions may differ. Read-outs that look alike come from different tables or passages of the source.

Type in all cases: in vivo, mice (C57BL/6J)
The nature of series [1]: Concentration of TAK-242 in plasma and brain tissue after i.p. injection (LC-MS/MS). As to conditions: for concentration at 3 h / concentration at 8 h / concentration at 24 h: male, C57BL/6J, mouse, ip, 3 mg/kg body weight; for concentration at 3 h: 3 hrs after i.p. injection; for concentration at 8 h: 8 hrs after i.p. injection; for concentration at 24 h: 24 hrs after i.p. injection. The source says: (§1) Animals—Fifty male mice (C57BL/6J, body weight 25˜30 g) were obtained from Jackson Laboratory and maintained in the Division of Laboratory Animal Resources at Emory University”. The experiments outlined in this manuscript conform to the Guide for the Care and Use of Laboratory Animals published by the National Institutes of Health. The animal care and experimental protocols were approved by the Emory University Committee on Animal Care. Animals were randomly assigned to four groups: sham control (S, n=4, for molecular analysis), focal cerebral ischemia/reperfusion (I/R, n=16; 5 for molecular analysis), Sham+TAK-242 (S-T, n=4, for molecular analysis), and I/R+TAK-242 (I/R-T, n=16; 5 for molecular analysis). Ten mice were used for the measurement of TAK-242 concentration in plasma and brain tissue.
(§2) Focal cerebral ischemia/reperfusion—Focal cerebral FR was induced by occlusion of the middle cerebral artery (MCAO) on the left side. Mice were subjected to anesthesia by 5.0% isoflurane and maintained by inhalation of 1.5% to 2% isoflurane driven by 100% oxygen flow. Mice were ventilated (110 breaths/min with volume 0.5 ml) and body temperature was regulated at 37.0° C. Heart rate and PO2 were monitored during surgery. Following the skin incision, the left common carotid artery (CCA), the external carotid artery (ECA), and the internal carotid artery (ICA) were carefully exposed. Microvascular aneurysm clips were applied to the left CCA and the ICA. A coated 6-0 filament (6023PK, Doccol Corp. CA, USA) was introduced into an arteriotomy hole, fed distally into the ICA and advanced 11 mm from the carotid bifurcation. The ICA clamp was removed and focal cerebral ischemia started. After ischemia for 60 min, the filament and the CCA clamp were gently removed (reperfusion starts). The collar suture at the base of the ECA stump was tightened. The skin was closed, anesthesia discontinued, and the animal allowed to recover in a pre-warmed cage. Control mice underwent a neck dissection and coagulation of the external carotid artery, but no occlusion of the MCA. Ischemia and reperfusion were confirmed by rCBF.
(§3) TAK-242 treatment—TAK-242 was dissolved in DMSO and then diluted in sterile endotoxin-free water and injected intraperitoneally (i.p., 3 mg/kg body weight) 1 hr after MCAO or sham surgical operation.
Measurement of TAK242 concentration in plasma and brain tissue—Three, 8 or 24 hours after the injection of TAK242, the mice were anesthetized with 5.0% isoflurane driven by 100% oxygen flow. Blood (0.95 ml) was drawn from the left ventricle and immediately mixed with 0.05 mL sodium citrate (CCS). The samples were incubated at room temperature for 30 min and centrifuged at 8000 rpm. The plasma was collected and stored at −80° C. for future use Immediately after the blood was drawn, the mice were perfused with ice-cold normal saline via the ascending aorta until the perfusion buffer was clear from the right atrium. The brains were removed and weighed. Brain tissues were homogenized with buffer, and centrifuged at 14000 rpm for 10 min. Supernatants were collected and stored at −80° C. The concentrations of TAK-242 were detected by Intertek (USA) using Liquid Chromatography with Tandem Mass Spectrometry Detection (LC-MS/MS). Briefly, TAK-242 and internal standard (Bromfenac) were extracted from 50 μL of mouse plasma or brain homogenate by liquid-liquid extraction using methyltertiary-butyl ether (MTBE). After evaporation to dryness and reconstitution, the extracts were analyzed by LC-MS/MS. Run times were approximately 5 min. The Lower Limit of Quantitation (LLOQ) for TAK-242 is 0.5 ng/ml for plasma and 2 ng/g for brain homogenate.

The test system of series [2] is mice subjected to acute cerebral I/R. Kind of series: Assessment of cerebral infarct size by TTC staining after focal cerebral ischemia/reperfusion (MCAO). As to conditions: 24 hrs after cerebral I/R, 3 mg/kg i.p. 1 hr after ischemia. The source says:
Animals—Fifty male mice (C57BL/6J, body weight 25˜30 g) were obtained from Jackson Laboratory and maintained in the Division of Laboratory Animal Resources at Emory University”. The experiments outlined in this manuscript conform to the Guide for the Care and Use of Laboratory Animals published by the National Institutes of Health. The animal care and experimental protocols were approved by the Emory University Committee on Animal Care. […]
Focal cerebral ischemia/reperfusion—Focal cerebral FR was induced by occlusion of the middle cerebral artery (MCAO) on the left side. […] Heart rate and PO2 were monitored during surgery. […]
Assessment of cerebral infarct size—Twenty-four hours after FR, mice were sacrificed and perfused with ice-cold phosphate buffered saline (PBS) via the ascending aorta. […] The infarct areas were traced and quantified with ImageJ analysis system. […] The area of infarction and the area of both hemispheres were calculated for each brain slice. An edema index was calculated by dividing the total volume of the left hemisphere by the total volume of the right hemisphere. The actual infarct volume adjusted for edema was calculated by dividing the infarct volume by the edema index. Infarct volumes are expressed as percentage of the total brain volume±S.E.M.

Series [3] has the same test system. Kind of series: Evaluation of neurological score after focal cerebral ischemia/reperfusion (MCAO). The settings on record: 24 hrs after cerebral I/R; 3 mg/kg i.p. 1 hr after ischemia; scale 0 to 15, 15 perfect; control group 4.38.
Text: as §1
Focal cerebral ischemia/reperfusion—Focal cerebral FR was induced by occlusion of the middle cerebral artery (MCAO) on the left side. Mice were subjected to anesthesia by 5.0% isoflurane and maintained by inhalation of 1.5% to 2% isoflurane driven by 100% oxygen flow. Mice were ventilated (110 breaths/min with volume 0.5 ml) and body temperature was regulated at 37.0° C. Heart rate and PO2 were monitored during surgery. […]
Evaluation of neurological score—Mice were scored by a blinded investigator. […]

The subject of series [4] is inflammatory cytokines in ischemic brain. Briefly: Antibody array of inflammatory cytokines in ischemic brain tissue. As to conditions: 6 hrs after cerebral I/R; 3 mg/kg i.p.; vs untreated controls, p<0.05.
Text: as §1, §2, §3
Antibody array—Proteins were prepared from ischemic cerebral hemispheres. Forty inflammatory cytokines were analyzed by antibody arrays (RayBio® Cytokine Antibody Arrays—Mouse Inflammation Antibody Array G Series I). Briefly, the glass chips were air-dried for 60 min and assembled into an incubation chamber and incubation frame. […] The signal data was collected and analyzed by software from RayBiotech, Inc. (Atlanta, Ga., USA). […]

Where [5] appears, read: hemisphere contralateral to ischemia, brain tissue, read-out: concentration of TAK-242 in hemisphere contralateral to ischemia.
Setting [6] is: ischemic (ipsilateral) hemisphere, brain tissue, read-out: concentration of TAK-242 in ischemic (ipsilateral) hemisphere.
The mark [7] stands for this setting: plasma, mice with tMCAO, read-out: concentration of TAK-242 in plasma.

For `CCOC(=O)C1=CCCC[C@H]1S(=O)(=O)Nc1ccc(F)cc1Cl` [TAK-242, ethyl (6R)-6-[N-(2-chloro-4-fluorophenyl)sulfamoyl]cyclohex-1-ene-1-carboxylate], the “ability to pass through the blood brain barrier (BBB)” value in series [1] (3 mg/kg i.p., mice) was “passes the blood-brain barrier; also recorded: can pass through the BBB”. In series [1] (3 mg/kg i.p., p<0.05), the “concentration in ischemic hemisphere compared with contralateral hemisphere” value was “significantly higher”. In series [1] (setting [5]), the concentration at 3 h stood at 14.2 ng/mL, the concentration at 8 h turned out to be 15.1 ng/mL and the concentration at 24 h worked out at 17.5 ng/mL. Besides, in series [1] (setting [6]), the concentration at 3 h amounted to 26.1 ng/mL, the concentration at 8 h was found to be 26.4 ng/mL and the concentration at 24 h was 25 ng/mL. Also, in series [1] (setting [7]), the concentration at 3 h worked out at 52 ng/mL, the concentration at 8 h worked out at 54.1 ng/mL and the concentration at 24 h is 22.6 ng/mL. The molecule further gave a brain infarct size in series [2] (control group 21.3%) of 12.5%. Besides, the “reduction of brain infarct size compared to control mice” value in series [2] (p<0.05) turned out to be 41%. In series [3], the neurological score is recorded as 6.73. In addition, in series [4], the “level of MCP-1 in brain tissue” value is reported as “significantly reduced”, the “level of MIP-1γ in brain tissue” value is “significantly reduced”, the “level of TIMP-1 in brain tissue” value is “significantly reduced” and the “level of sTNF RII in brain tissue” value is “significantly reduced”.
